Legend:
D(3) dopamine receptor = D(3) dopamine receptor (Homo sapiens, UniProt P35462); experiment: biochemical
Description: Displacement of [3H]spiperone from human Dopamine receptor D3 expressed in CHO cells

D(4) dopamine receptor = target: T1, D(4) dopamine receptor (Homo sapiens, UniProt P21917); experiment: biochemical
T1 sequence (P21917 whole entry): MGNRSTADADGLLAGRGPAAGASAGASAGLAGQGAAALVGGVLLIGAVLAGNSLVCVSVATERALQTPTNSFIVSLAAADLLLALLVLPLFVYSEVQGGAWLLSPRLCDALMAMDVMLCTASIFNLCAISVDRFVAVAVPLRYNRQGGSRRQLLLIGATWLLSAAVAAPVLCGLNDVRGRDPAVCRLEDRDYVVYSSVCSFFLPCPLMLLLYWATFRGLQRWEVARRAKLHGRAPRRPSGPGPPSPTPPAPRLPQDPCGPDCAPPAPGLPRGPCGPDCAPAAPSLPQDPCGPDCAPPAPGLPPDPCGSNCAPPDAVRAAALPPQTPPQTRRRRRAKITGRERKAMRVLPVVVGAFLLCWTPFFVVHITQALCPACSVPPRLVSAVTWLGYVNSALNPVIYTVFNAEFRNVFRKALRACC
Description: Displacement of [3H]spiperone from human Dopamine receptor D4 expressed in HEK293 cells

Sequence of D(3) dopamine receptor (P35462 whole entry): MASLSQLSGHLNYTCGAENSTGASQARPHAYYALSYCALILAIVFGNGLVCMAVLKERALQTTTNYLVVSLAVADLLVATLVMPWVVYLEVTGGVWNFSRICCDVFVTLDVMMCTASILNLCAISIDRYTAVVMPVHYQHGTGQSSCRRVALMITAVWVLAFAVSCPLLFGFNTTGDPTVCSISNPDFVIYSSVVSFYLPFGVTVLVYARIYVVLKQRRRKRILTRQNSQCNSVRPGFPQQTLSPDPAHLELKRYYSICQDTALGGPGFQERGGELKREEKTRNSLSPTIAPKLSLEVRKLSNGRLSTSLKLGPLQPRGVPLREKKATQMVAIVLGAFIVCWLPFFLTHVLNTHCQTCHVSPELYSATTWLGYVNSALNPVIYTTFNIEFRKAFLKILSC

| Compound | Ki (D(3) dopamine receptor) [nM] | Ki (D(4) dopamine receptor) [nM] |
| --- | --- | --- |
| Cc1c(-c2ccc(Cl)cc2)noc1C1CCN(CCc2ccccc2)CC1 | 480 | 2.5 |
| Cc1c(C2CCN(CCc3ccccc3)CC2)n[nH]c1-c1ccc(Cl)cc1 | 1200 | 1.2 |
| Clc1ccc(CN2CCC(c3cc(-c4ccc(Cl)cc4)[nH]n3)CC2)cc1 | 820 | 61 |
| Clc1ccc(-c2cc(C3CCN(CCc4ccccc4)CC3)[nH]n2)cc1 | > 4000 | 5.5 |

These reach a lower Ki (D(3) dopamine receptor). Values come first.

| Ki (D(3) dopamine receptor) [nM] | Ki (D(4) dopamine receptor) [nM] | Compound |
| --- | --- | --- |
| 430 | 44 | Clc1ccc(CN2CCC(c3cc(-c4ccc(Cl)cc4)on3)CC2)cc1 |
| 81 | 3.6 | Clc1ccc(CN2CCC(c3cc(-c4ccc(Cl)cc4)no3)CC2)cc1 |

From ChEMBL document CHEMBL1129307, “5-(4-Chlorophenyl)-4-methyl-3-(1-(2-phenylethyl)piperidin-4-yl)isoxazole: a potent, selective antagonist at human cloned dopamine D4 receptors” (J Med Chem, 1996)
